The results in this text go back to PubChem BioAssay (NCI).

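Interpolation was linear, between the two tested concentrations surrounding the appropriate level; five concentrations were tested over 48 hours in 96-well plates. At the TGI there is no net growth.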

Test in all cases: NCI anticancer screen, dose series, 48 h
The subject of experiment [1] is 786-0 renal.
The test system of experiment [2] is COLO 205 colon.
The test system of experiment [3] is MALME-3M melanoma.
In experiment [4] the test system is NCI/ADR-RES ovarian.
The test system of experiment [5] is OVCAR-8 ovarian.
For experiment [6], the system named is RXF 393 renal.
Experiment [7] concerns SF-539 CNS.
The subject of experiment [8] is SK-MEL-2 melanoma.
Experiment [9] concerns SNB-75 CNS.
Experiment [10] relates to UACC-257 melanoma.
Experiment [11] concerns HCC-2998 colon.

Consider `CN(C)CCCN=c1c2ccccc2n(O)c2ccccc12`, for which the TGI is over 100 µM in [1]; 26.9 µM in experiment [2]; over 100 µM in experiment [3]; over 100 µM in experiment [4]; over 100 µM in experiment [5]; over 100 µM in [6]. Further, the TGI in experiment [7], in [8], in experiment [9] and in [10] was over 100 µM in each case.
Consider `O=C(Nc1nnc(-c2ccc(Cl)cc2)o1)C(SC(=S)N1CCOCC1)c1ccccc1` (stereo not drawn), for which the TGI is over 100 µM in experiment [1]; 28.8 µM in [2]; over 100 µM in experiment [3]; 90.7 µM in experiment [4]; over 100 µM in experiment [5]; over 100 µM in [6]. For the same molecule, the TGI in experiment [7] is 34.1 µM; in [8] it was 44.7 µM; in experiment [9], over 100 µM; in [10], over 100 µM.
For `COc1cc(OC)c2c(C)cc(=O)oc2c1`, the TGI in experiment [1], in experiment [2], in experiment [3], in experiment [4], in experiment [5] and in experiment [7] was over 100 µM throughout. The TGI in experiment [8], in experiment [9] and in experiment [10] was over 100 µM in each case.
`CC(=O)OC1C(Oc2c(C)cc3c(c2O)[C@@H](C)CC[C@@H]3[C@@H](C)CCC=C(C)C)OCC(O)C1O` (stereo partly drawn): the TGI in experiment [1] is 32.8 µM; in experiment [2] it was 30.7 µM; in experiment [4] it was 40.6 µM; in experiment [5] it was 47.4 µM; in [7] it was 34.7 µM; in experiment [8] it was 45.2 µM. This molecule also showed a TGI in experiment [10] of 35.6 µM.
Take `COC(=O)C1=CS/C(=C2\S[C@@H]3[C@H](S2)[C@H]2C=C[C@@H]3C2)S1`: the TGI is over 100 µM in [1]; over 100 µM in experiment [2]; over 100 µM in experiment [3]; 47.8 µM in experiment [4]; over 100 µM in [5]; over 100 µM in [6]. Also, the TGI is 32.5 µM in [7], over 100 µM in experiment [8], over 100 µM in [9] and over 100 µM in experiment [10].
For the molecule `CC(C)OC(=O)/C=C/C(=O)O/C=C/[N+](=O)[O-]`, the TGI in experiment [1] was over 100 µM; in experiment [2], 38.3 µM; in experiment [11], 50.2 µM; in experiment [3] it was 63.7 µM; in experiment [4] it was over 100 µM; in experiment [5], over 100 µM. For the same molecule, the TGI is 44 µM in [6], over 100 µM in experiment [7], 46.4 µM in [8] and over 100 µM in [10].
On to `CC1(C)C[C@@H]2C1CCC1(C)CC2(O)CC[C@H]1O` (stereo partly drawn), for which the TGI in experiment [1], in experiment [2], in [3], in experiment [4], in experiment [5] and in [8] was over 100 µM each time. Further, the TGI in [9] and in experiment [10] was over 100 µM in each case.
For the molecule `CC(CC[C@@]1(C)C(=O)CCC2O[C@]21C)[C@H]1C[C@@H](c2ccoc2)OC1=O` (stereo partly drawn), the TGI was 63.1 µM in experiment [1]; 52.1 µM in experiment [2]; over 100 µM in experiment [11]; 81.3 µM in experiment [3]; over 100 µM in [4]; 39.8 µM in [6]. Further, the TGI in experiment [7] was 69.1 µM; in experiment [8], over 100 µM; in [10], over 100 µM.
With `CCCc1c(O)nc(Nc2nc3ccccc3[nH]2)[nH]c1=O`, the TGI in [1], in experiment [2], in experiment [3], in experiment [4], in experiment [5] and in [6] was over 100 µM throughout. For the same molecule, the TGI in experiment [7], in experiment [8], in experiment [9] and in [10] was over 100 µM each time.
Take `Cc1ccc(S(=O)(=O)N/N=C2/CCCOC2)cc1`: the TGI in experiment [1], in [2], in [11], in experiment [3], in experiment [4] and in experiment [5] was over 100 µM each time. The TGI in experiment [6], in experiment [7], in experiment [8] and in [10] was over 100 µM throughout.
On to `O=C(c1ccco1)N(C(=S)OCCOc1ccccc1)c1ccccc1`, for which the TGI in experiment [1] was 38.3 µM; in [2] it was 37.5 µM; in experiment [11] it was 37.9 µM; in experiment [3] it was 40 µM; in experiment [4] it was 58.6 µM; in [5], 38.2 µM. Besides, the TGI was determined as 28.2 µM in experiment [6], 39 µM in [7], 41.1 µM in [8] and 37.4 µM in experiment [10].
For the molecule `O=Cc1ccccc1COC(=O)c1cc(C(=O)OCc2ccccc2C=O)c(C(=O)OCc2ccccc2C=O)cc1C(=O)OCc1ccccc1C=O`, the TGI in experiment [1], in experiment [2], in experiment [11], in experiment [3], in experiment [5] and in experiment [6] was over 100 µM in each case. Also, the TGI in experiment [7] is over 100 µM; in experiment [8], over 100 µM; in experiment [9], 65.4 µM; in experiment [10] it was over 100 µM.
Take `N#CCCC(CCC#N)(CCC#N)NO`: the TGI in experiment [1], in experiment [2], in experiment [3], in experiment [4], in experiment [5] and in experiment [6] was over 100 µM in each case. Further, the TGI in [7], in [8], in experiment [9] and in experiment [10] was over 100 µM each time.
On to `CCC(=O)Oc1ccc2c(c1)c(=O)c1c(NCCCN(C)C)ccc3nnn2c31`, for which the TGI in [1] is 7.06 µM; in experiment [2], 13.7 µM; in experiment [11], 15 µM; in experiment [3], 17 µM; in [4], 18.5 µM; in [5], 15.1 µM. Further, the TGI in experiment [6] turned out to be 15.5 µM; in [7] it was 13.9 µM; in experiment [8] it was 26.4 µM; in experiment [10], 23.4 µM.
